Measured values published in ChEMBL document CHEMBL2440042, “Anti-proliferative activity of hydnocarpin, a natural lignan, is associated with the suppression of Wnt/β-catenin signaling pathway in colon cancer cells” (Bioorg Med Chem Lett, 2013).

System: SW480
Assay: Inhibition of Wnt/beta-catenin signaling pathway in human SW480 cells assessed as Axin1 protein expression at 5 uM after 12 hrs by Western blotting analysis relative to vehicle-treated control

Question: With `COc1cc([C@H]2Oc3ccc(-c4cc(=O)c5c(O)cc(O)cc5o4)cc3O[C@@H]2CO)ccc1O` (relative stereo) as the molecule, how does the “fold change (FC)” value read?
Answer: 1.9
